The source made the active and inactive calls. Unless noted, no cut-off for these calls is given here.
How the values were obtained:
[1] = target: T1, Carboxy-terminal domain RNA polymerase II polypeptide A small phosphatase 1 (Homo sapiens, UniProt Q9GZU7); assay: CTDSP1 inhibitors, concentration-response, biochemical, absorbance readout, ultra-high-throughput screen actives (AID 540297); format: functional
T1 sequence (Q9GZU7 whole entry): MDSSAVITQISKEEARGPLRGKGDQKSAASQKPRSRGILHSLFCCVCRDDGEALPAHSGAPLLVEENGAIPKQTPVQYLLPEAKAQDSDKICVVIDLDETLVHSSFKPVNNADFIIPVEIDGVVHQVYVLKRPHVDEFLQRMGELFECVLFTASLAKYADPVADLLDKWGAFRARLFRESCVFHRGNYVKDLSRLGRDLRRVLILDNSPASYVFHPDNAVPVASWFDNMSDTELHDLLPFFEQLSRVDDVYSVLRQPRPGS

Bcl-2-like protein 10 = Bcl-2-like protein 10 (Homo sapiens, UniProt Q9HD36); assay: Bcl-B/TR3 peptide binding disruption – biochemical, fluorescence polarization, FITC-TR3 peptide, selectivity assay for Bfl-1 inhibitor project, primary screen (AID 748);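 note: fluorescence polarization from a fluorescein-labelled TR3 peptide binding purified Bcl-B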
Sequence of Bcl-2-like protein 10 (Q9HD36 whole entry): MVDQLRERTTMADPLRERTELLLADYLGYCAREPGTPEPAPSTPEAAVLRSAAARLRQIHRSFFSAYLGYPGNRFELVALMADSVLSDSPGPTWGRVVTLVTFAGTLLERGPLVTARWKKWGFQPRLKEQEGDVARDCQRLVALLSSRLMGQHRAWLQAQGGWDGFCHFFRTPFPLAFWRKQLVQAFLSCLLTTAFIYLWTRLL

[2] = target: Bifunctional protein GlmU (Mycobacterium tuberculosis, UniProt P9WMN3); assay: Inhibitors of Mycobacterial Glucosamine-1-phosphate acetyl transferase (GlmU). Secondary screen.; design: species or system Mycobacterium tuberculosis H37Rv
Sequence of Bifunctional protein GlmU (P9WMN3 whole entry): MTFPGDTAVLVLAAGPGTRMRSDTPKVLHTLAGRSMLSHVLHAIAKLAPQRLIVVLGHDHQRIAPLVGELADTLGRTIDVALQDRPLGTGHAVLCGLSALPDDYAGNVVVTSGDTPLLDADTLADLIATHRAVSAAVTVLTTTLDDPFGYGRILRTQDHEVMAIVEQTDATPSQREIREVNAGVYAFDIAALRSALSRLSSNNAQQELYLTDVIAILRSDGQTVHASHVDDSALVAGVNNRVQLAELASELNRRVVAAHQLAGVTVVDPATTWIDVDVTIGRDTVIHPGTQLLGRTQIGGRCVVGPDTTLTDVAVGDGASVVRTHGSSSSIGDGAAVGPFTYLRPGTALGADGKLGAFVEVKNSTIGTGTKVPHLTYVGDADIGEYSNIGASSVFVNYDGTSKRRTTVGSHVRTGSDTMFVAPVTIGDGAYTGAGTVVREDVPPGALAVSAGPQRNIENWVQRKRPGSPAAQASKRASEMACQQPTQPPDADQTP

[3] = target: T2, Histone-lysine N-methyltransferase NSD2 (Homo sapiens, UniProt O96028); format: biochemical
T2 sequence (O96028 whole entry): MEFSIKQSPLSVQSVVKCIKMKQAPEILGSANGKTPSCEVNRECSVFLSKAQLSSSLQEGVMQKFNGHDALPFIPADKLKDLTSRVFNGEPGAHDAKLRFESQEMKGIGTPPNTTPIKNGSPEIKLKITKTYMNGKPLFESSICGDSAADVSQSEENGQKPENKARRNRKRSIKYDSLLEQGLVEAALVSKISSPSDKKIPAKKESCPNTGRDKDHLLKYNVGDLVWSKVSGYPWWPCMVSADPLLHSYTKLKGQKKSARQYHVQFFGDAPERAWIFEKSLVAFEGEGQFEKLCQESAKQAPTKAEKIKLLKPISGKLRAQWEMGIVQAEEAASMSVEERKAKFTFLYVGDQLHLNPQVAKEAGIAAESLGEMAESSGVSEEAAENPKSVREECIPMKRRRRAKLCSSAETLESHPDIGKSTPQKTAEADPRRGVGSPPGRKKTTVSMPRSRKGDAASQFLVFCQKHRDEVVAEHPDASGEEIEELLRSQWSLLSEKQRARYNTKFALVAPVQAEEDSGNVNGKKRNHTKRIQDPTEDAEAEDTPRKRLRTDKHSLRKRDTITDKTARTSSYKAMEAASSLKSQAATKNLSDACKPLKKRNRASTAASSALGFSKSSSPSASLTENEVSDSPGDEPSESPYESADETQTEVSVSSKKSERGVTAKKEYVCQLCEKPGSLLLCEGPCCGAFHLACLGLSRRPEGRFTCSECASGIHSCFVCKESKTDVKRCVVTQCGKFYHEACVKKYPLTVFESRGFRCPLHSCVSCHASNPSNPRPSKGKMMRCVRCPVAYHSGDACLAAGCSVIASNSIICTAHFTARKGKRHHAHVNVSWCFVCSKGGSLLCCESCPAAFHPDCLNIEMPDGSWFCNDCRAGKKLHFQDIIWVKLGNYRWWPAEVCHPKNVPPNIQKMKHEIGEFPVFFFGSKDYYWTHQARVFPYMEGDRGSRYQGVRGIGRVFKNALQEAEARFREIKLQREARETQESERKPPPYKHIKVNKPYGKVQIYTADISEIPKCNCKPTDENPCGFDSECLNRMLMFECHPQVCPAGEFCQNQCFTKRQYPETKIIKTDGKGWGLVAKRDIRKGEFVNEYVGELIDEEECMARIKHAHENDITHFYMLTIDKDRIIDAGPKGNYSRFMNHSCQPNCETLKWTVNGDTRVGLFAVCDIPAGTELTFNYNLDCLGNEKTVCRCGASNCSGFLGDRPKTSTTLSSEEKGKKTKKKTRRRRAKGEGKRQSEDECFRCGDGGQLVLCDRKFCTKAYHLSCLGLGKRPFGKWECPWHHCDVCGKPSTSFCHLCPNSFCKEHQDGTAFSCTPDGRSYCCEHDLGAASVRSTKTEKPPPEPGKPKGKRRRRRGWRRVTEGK

ORF 73 = ORF 73 (Human herpesvirus 8, UniProt O40947); assay: KSHV LANA DNA-binding disruption – biochemical, fluorescence polarization, cherry-picked samples, dose response (AID 504725); design: species or system Human gammaherpesvirus 8;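 note: fluorescence polarization of a labeled DNA duplex reporting LANA DNA binding; potency is for inhibitors that block LANA binding to the DNA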
Sequence of ORF 73 (O40947 whole entry): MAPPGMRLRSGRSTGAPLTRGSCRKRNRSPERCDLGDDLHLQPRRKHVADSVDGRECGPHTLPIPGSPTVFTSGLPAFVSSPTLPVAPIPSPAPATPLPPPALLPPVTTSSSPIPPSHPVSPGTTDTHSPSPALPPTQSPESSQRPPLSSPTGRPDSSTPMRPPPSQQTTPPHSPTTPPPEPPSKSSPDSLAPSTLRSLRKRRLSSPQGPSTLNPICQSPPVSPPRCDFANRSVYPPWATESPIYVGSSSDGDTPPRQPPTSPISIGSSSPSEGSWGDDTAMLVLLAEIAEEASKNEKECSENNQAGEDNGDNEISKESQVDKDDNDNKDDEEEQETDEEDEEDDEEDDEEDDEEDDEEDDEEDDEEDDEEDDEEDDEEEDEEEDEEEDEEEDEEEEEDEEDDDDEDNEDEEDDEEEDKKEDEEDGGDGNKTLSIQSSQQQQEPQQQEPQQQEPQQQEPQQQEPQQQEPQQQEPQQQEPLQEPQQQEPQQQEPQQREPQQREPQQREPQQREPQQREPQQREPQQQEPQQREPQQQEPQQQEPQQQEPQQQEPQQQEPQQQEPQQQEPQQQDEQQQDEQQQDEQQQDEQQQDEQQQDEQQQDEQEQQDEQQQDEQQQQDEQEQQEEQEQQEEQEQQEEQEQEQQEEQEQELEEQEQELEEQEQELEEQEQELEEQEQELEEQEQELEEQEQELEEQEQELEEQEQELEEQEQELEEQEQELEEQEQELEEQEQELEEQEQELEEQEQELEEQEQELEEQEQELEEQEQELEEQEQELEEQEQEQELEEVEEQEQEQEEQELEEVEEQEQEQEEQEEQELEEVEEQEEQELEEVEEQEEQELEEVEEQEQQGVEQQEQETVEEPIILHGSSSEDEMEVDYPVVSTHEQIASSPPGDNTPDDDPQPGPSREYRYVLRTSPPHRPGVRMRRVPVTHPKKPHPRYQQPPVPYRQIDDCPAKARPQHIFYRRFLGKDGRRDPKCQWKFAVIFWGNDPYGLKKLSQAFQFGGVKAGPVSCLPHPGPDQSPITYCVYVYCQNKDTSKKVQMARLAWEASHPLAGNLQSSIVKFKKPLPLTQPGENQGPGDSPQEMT

[4] = target: Protein phosphatase methylesterase 1 (Homo sapiens, UniProt Q9Y570); assay: endogenous PME-1 and serine hydrolase inhibition – cell lysate, mouse brain cytosol, FP-rhodamine, gel ABPP, selectivity assay for PME-1 inhibitor project, dose response, panel member PME-1 Assay Panel member description: Inhibition of endogenously expressed PME-1 (AID 2366)
Sequence of Protein phosphatase methylesterase 1 (Q9Y570 whole entry): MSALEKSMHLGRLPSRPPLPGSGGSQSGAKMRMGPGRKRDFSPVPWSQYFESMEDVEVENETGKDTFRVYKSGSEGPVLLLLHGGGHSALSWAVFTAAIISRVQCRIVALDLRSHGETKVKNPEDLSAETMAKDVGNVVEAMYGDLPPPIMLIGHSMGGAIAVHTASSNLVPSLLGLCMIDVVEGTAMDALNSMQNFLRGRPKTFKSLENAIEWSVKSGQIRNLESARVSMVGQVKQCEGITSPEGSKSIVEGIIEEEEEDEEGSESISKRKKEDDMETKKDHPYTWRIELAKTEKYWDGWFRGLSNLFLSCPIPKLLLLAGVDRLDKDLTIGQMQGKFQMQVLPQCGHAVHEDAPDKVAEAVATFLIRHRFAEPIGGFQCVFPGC

[5] = HRAS-V12 fibroblast viability reduction – cell-based, Alamar Blue, dry powder, Ras selective lethality project, primary screen (AID 493045); format: functional; details: BJeLR
[6] = BJeH cell viability loss – BJeH cells, dry powder, counter-screen for Ras selective lethality project, dose response (AID 493054); format: functional, cell-based
[7] = DRD BJ cell killing, Ras synthetic lethality – DRD BJ fibroblasts, HRASV12, dry powder, dose response (AID 493049); format: functional, cell-based
[8] = BJeHLT cell viability loss – BJeHLT cells, dry powder, counter-screen for Ras selective lethality project, dose response (AID 493052); format: functional, cell-based; details: Homo sapiens
[9] = target: Glutathione S-transferase omega-1 (Homo sapiens, UniProt P78417); assay: IC50 of human GSTO1 blockade by gel ABPP – biochemical, SE-Rh probe, in-gel fluorescence, powder samples, set 2, late-stage follow-up (AID 463142); format: functional
Sequence of Glutathione S-transferase omega-1 (P78417 whole entry): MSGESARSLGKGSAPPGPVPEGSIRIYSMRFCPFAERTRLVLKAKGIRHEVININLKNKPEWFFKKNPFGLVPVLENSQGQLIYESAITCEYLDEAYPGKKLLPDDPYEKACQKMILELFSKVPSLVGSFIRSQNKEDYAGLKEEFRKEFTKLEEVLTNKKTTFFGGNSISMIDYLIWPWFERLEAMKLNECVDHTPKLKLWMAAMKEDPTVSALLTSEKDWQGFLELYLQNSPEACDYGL

[10] = target: T3, Mannose-6-phosphate isomerase (Homo sapiens, UniProt P34949); assay: phosphomannose isomerase inhibition – biochemical, fluorescence intensity, confirmation (AID 1535)
T3 sequence (P34949 whole entry): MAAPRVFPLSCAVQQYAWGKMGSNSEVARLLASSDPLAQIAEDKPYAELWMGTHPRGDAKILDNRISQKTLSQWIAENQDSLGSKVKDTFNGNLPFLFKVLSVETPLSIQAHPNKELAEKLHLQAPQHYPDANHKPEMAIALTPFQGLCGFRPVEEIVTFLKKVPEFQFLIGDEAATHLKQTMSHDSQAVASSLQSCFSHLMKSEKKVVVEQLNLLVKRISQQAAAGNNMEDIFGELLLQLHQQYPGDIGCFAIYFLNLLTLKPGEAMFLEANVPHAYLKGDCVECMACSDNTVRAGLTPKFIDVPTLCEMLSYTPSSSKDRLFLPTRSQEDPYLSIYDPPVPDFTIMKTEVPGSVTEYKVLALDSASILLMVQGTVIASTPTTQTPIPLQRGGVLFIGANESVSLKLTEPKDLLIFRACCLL

[11] = target: Phosphoethanolamine/phosphocholine phosphatase (Homo sapiens, UniProt Q8TCT1); assay: SAR assay for compounds that inhibit PHOSPHO1. [Related pubchem assays (depositor defined):AID1545, AID1565, AID1574]
Sequence of Phosphoethanolamine/phosphocholine phosphatase (Q8TCT1 whole entry): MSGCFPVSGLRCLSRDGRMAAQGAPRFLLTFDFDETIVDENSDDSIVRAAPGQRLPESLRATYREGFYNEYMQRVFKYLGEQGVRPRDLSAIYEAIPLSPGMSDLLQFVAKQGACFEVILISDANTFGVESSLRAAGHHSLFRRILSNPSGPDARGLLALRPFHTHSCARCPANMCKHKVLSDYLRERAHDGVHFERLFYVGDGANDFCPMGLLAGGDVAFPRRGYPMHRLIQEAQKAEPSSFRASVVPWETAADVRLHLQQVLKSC

Phosphomannomutase 2 = Phosphomannomutase 2 (Homo sapiens, UniProt O15305); assay: Counter screen SAR assay for PMM2 inhibitors via a fluorescence intensity assay. [Related pubchem assays (depositor defined):AID1545, AID1574]
Sequence of Phosphomannomutase 2 (O15305 whole entry): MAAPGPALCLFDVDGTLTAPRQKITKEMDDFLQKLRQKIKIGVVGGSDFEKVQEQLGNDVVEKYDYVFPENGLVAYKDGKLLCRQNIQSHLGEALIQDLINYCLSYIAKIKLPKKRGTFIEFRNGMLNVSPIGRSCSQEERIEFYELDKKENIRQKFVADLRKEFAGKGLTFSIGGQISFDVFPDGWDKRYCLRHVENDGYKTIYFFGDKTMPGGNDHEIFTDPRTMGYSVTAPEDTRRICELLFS

O=C(c1coc(=O)c(Br)c1)N1CCOCC1
IC50 [1]: 7.34 µM (active) | IC50 (Bcl-2-like protein 10): 34 µM (active) | IC50 [2]: 88.3 µM (active) | AC50 [3]: 12.1 µM (active)

NC(S)=NN=Cc1ccc(-c2ccc(S(=O)(=O)Nc3ncccn3)cc2)o1
AC50 (ORF 73): 97.3 µM (active) | AC50 [3]: 15.3 µM (active)

CCCCS(=O)(=O)n1cccc1/C=C(\C#N)S(C)(=O)=O
IC50 [4]: > 20 µM (inactive)

COc1ccc(N(C(=O)CCl)C(C(=O)NCCc2ccccc2)C(C)C)cc1Cl (stereo not given)
AC50 [5]: 0.895 µM (active) | AC50 [6]: 1.81 µM (active) | AC50 [7]: 0.887 µM (active) | AC50 [8]: 1.3 µM (active)

O=C(CCl)N(CCCCNC(=O)C(F)(F)F)c1ccc([N+](=O)[O-])cc1
IC50 [9]: 0.012 µM (active)

O=c1c2ccc(F)cc2sn1-c1cc(Cl)c(Cl)cc1Cl
IC50 [10]: > 50 µM (inactive) | IC50 [11]: 0.563 µM (active) | IC50 (Phosphomannomutase 2): > 100 µM (inactive)

Reference: ChEMBL document CHEMBL1201862, “PubChem BioAssay data set” (2004)
